Results from patent US20100184786A1, “Polar Quinazolines” (Wyeth LLC, priority 2008, published 2010).

Tests used:
human LXRα = biological target: T1, human LXRα (Homo sapiens, UniProt Q13133); assay: Ligand-binding test procedure for human LXRα (3H T0901317 tracer, flash plates); settings: competition with 3H T0901317; read-out: hLXRa binding IC50
T1 construct: biotin (biotinylated); made in house; host or cells: E. coli
T1 sequence (Q13133 1-447): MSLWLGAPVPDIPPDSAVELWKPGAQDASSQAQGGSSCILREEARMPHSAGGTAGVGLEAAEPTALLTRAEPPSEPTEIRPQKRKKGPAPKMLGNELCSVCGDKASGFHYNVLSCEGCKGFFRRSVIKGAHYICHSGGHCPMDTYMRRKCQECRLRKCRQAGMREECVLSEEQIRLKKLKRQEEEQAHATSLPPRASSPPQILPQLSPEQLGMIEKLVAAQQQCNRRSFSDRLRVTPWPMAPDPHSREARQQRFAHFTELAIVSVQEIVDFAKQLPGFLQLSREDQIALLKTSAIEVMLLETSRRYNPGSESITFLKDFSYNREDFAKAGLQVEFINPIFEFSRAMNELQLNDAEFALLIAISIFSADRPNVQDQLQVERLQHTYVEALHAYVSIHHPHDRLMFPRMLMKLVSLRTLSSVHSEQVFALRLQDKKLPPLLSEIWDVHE
Method: II. Ligand-Binding Test Procedure for Human LXRa.
(§1) • Buffer: 100 mM KCl, 100 mM TRIS (pH 7.4 at +4° C.), 8.6% glycerol, 0.1 mM PMSF*, 2 mM MTG*, 0.2% CHAPS (* not used in wash buffer) • Tracer: ^3H T0901317 • Receptor source: E. coli extract from cells expressing biotinylated hLXRα. Extract was made in a similar buffer as above, but with 50 mM TRIS.
• Washed streptavidin and coated flash plates with wash buffer. • Diluted receptor extract to give Bmax˜4000 cpm and add to the wells. • Wrapped the plates in aluminum foil and stored them at +4° C. over night.
(§2) • Made a dilution series in DMSO of the test ligands. • Made a 5 nM solution of the radioactive tracer in buffer. • Mixed 2500 diluted tracer with 50 of the test ligand from each concentration of the dilution series. • Washed the receptor-coated flash plates. • Added 2000 per well of the ligand/radiolabel mixture to the receptor-coated flash plates. • Wrapped the plates in aluminum foil and incubate at +4° C. over night.
• Aspirated wells, and wash the flashed plates. Sealed the plate. • Measured the remaining radioactivity in the plate.

human LXRβ = biological target: T2, human LXRβ (Homo sapiens, UniProt P55055); assay: Ligand-binding test procedure for human LXRβ (3H T0901317 tracer, flash plates); settings: competition with 3H T0901317; read-out: hLXRb binding IC50
T2 construct: biotin (biotinylated); made in house; host or cells: E. coli
T2 sequence (P55055 1-460): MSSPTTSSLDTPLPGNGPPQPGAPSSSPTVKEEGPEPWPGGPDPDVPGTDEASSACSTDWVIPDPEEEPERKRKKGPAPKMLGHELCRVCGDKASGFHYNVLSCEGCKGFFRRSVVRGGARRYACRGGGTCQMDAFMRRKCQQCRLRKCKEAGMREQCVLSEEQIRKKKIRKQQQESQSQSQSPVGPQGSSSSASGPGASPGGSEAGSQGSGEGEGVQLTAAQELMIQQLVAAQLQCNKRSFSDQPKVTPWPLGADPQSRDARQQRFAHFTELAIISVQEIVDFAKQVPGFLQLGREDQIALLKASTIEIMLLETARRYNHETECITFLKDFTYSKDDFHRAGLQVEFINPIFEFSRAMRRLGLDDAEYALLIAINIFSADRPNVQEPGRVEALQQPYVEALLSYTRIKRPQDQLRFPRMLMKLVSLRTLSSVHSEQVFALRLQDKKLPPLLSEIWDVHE
Method: I. Ligand-Binding Test Procedure for Human LXRβ.
as §1, with “extracted” for “extract”, “hLXRβ.” for “hLXRα.”
• Washed streptavidin and coated flash plates with wash buffer. • Diluted receptor extract to give Bmax˜4000 cpm and add to the wells. • Wrapped the plates in aluminum foil and stored them at +4° C. overnight.
as §2
• Aspirated wells, and washed the flashed plates. Sealed the plate. • Measured the remaining radioactivity in the plate.

Row | SMILES | IC50 (human LXRα) | IC50 (human LXRβ)
1 | CS(=O)(=O)c1cc(Oc2ccc(Cl)c(-c3ncnc4c(Cl)cccc34)c2)ccc1C(N)=O [Example 6, 4-[4-chloro-3-(8-chloroquinazolin-4-yl)phenoxy]-2-(methylsulfonyl)benzamide] | 3840 nM | 1260 nM
2 | NC(=O)CCCS(=O)(=O)c1cccc(Oc2ccc(F)c(-c3ncnc4c(C(F)(F)F)cccc34)c2)c1 [Example 26, 4-[(3-{4-fluoro-3-[8-(trifluoromethyl)quinazolin-4-yl]phenoxy}phenyl)sulfonyl]butanamide] | 2480 nM | 184 nM
3 | CS(=O)(=O)c1cc(Oc2ccc(F)c(-c3ncnc4c(Cl)cccc34)c2)ccc1C#N [Example 41, 4-[3-(8-chloroquinazolin-4-yl)-4-fluorophenoxy]-2-(methylsulfonyl)benzonitrile] |  | 1060 nM
4 | CNCCCCS(=O)(=O)c1cccc(Oc2ccc(F)c(-c3ncnc4c(Cl)cccc34)c2)c1 [Example 43, 4-({3-[3-(8-chloroquinazolin-4-yl)-4-fluorophenoxy]phenyl}sulfonyl)-N-methylbutan-1-amine] |  | 3590 nM
5 | CN(CCCCS(=O)(=O)c1cccc(Oc2ccc(F)c(-c3ncnc4c(Cl)cccc34)c2)c1)S(C)(=O)=O [Example 48, N-[4-({3-[3-(8-chloroquinazolin-4-yl)-4-fluorophenoxy]phenyl}sulfonyl)butyl]-N-methylmethanesulfonamide] |  | 1020 nM
6 | CN(CCCS(=O)(=O)c1cccc(Oc2ccc(F)c(-c3ncnc4c(Cl)cccc34)c2)c1)S(C)(=O)=O [Example 49, N-[3-({3-[3-(8-chloroquinazolin-4-yl)-4-fluorophenoxy]phenyl}sulfonyl)propyl]-N-methylmethanesulfonamide] |  | 1990 nM
7 | O=C(O)CCCCS(=O)(=O)c1cccc(Oc2ccc(F)c(-c3ncnc4c(Cl)cccc34)c2)c1 [Example 56, 5-({3-[3-(8-chloroquinazolin-4-yl)-4-fluorophenoxy]phenyl}sulfonyl)pentanoic acid] |  | 3430 nM
8 | O=C(O)CCCS(=O)(=O)c1cccc(Oc2ccc(F)c(-c3ncnc4c(Cl)cccc34)c2)c1 [Example 57, 4-({3-[3-(8-chloroquinazolin-4-yl)-4-fluorophenoxy]phenyl}sulfonyl)butanoic acid] |  | 4210 nM

Continued by falling IC50 (human LXRβ), values first:

Row | IC50 (human LXRα) | IC50 (human LXRβ) | SMILES
9 | 16700 nM | 1200 nM | O=C(O)CCCS(=O)(=O)c1cccc(Oc2ccc(F)c(-c3ncnc4c(C(F)(F)F)cccc34)c2)c1 [Example 27, 4-[(3-{4-fluoro-3-[8-(trifluoromethyl)quinazolin-4-yl]phenoxy}phenyl)sulfonyl]butanoic acid]
10 | 2880 nM | 336 nM | NS(=O)(=O)c1cccc(Oc2ccc(F)c(-c3ncnc4c(Cl)cccc34)c2)c1 [Example 20, 3-[3-(8-chloroquinazolin-4-yl)-4-fluorophenoxy]benzenesulfonamide]
11 | 3130 nM | 329 nM | CS(=O)(=O)c1cc(Oc2ccc(Cl)c(-c3ncnc4c(Cl)cccc34)c2)ccc1C#N [Example 1, 4-[4-chloro-3-(8-chloroquinazolin-4-yl)phenoxy]-2-(methylsulfonyl)benzonitrile]
12 | 986 nM | 288 nM | CS(=O)(=O)c1cc(Oc2ccc(Cl)c(-c3ncnc4c(C(F)(F)F)cccc34)c2)ccc1C(N)=O [Example 7, 4-{4-chloro-3-[8-(trifluoromethyl)quinazolin-4-yl]phenoxy}-2-(methylsulfonyl)benzamide]
13 | 1530 nM | 286 nM | N#CCS(=O)(=O)c1cccc(Oc2ccc(F)c(-c3ncnc4c(Cl)cccc34)c2)c1 [Example 10, ({3-[3-(8-chloroquinazolin-4-yl)-4-fluorophenoxy]phenyl}sulfonyl)acetonitrile]
14 | 1060 nM | 152 nM | CS(=O)(=O)c1cc(Oc2ccc(Cl)c(-c3ncnc4c(C(F)(F)F)cccc34)c2)ccc1C#N [Example 2, 4-{4-chloro-3-[8-(trifluoromethyl)quinazolin-4-yl]phenoxy}-2-(methylsulfonyl)benzonitrile]
